Source: US8361969B2, “Designer cyclic peptides—HIV gp120 antagonists and their applications” (priority 2011, dated 2013)
Several values for one entry are separate records, joined by “and”; a condition that tells them apart may be missing. Identical values can stand only once. Non-standard residues stand in square brackets, D forms with d. Residues, ends and D or L forms follow the SMILES beside them. dBip = N[C@H](Cc1ccc(-c2ccccc2)cc1)C(=O)O

How the values were obtained:
[1] = system: HIV-1; conditions: read-out: IC50, inhibition of HIV-1 entry (attachment assay); compounds pre-equilibrated with the cells rather than with the virus; value represents lower boundary of actual activity
Excerpt: An attachment assay, described by Lackman-Smith et al., 2008, was used.

[2] = system: cells; conditions: highest tested concentration 100 μM

CC[C@H](C)[C@@H]1NC(=O)[C@H](CC(=O)O)NC(=O)[C@H](Cc2ccccc2)NC(=O)[C@H](CC(=O)O)NC(=O)[C@@H](CC(=O)O)NC(=O)[C@@H](Cc2ccc(-c3ccccc3)cc2)NC(=O)[C@H]2CCCN2C(=O)CNC(=O)[C@@H](CCC(=O)O)NC(=O)[C@@H](Cc2ccc(O)cc2)NC(=O)[C@H](CCCCN)NC(=O)[C@@H](CC(C)C)NC(=O)[C@@H](CC(=O)O)NC(=O)[C@H]([C@@H](C)CC)NC1=O [2-s4-98rp-39m-60-1_MC] (cyclo(DFDII[dD][dL]K[dY][dE]G[dP][dBip][dD]))
IC50 [1]: ≤ 1.64 µM and 1.64 µM
cytotoxicity (none observed up to the highest tested concentration) [2]: > 100 µM
